Patent US20240132492A1, “PYRIDOPYRIMIDINE-BASED COMPOUND AND APPLICATION THEREOF” (JINAN UNIVERSITY, priority 2021, published 2024)

What was measured:
Format in all cases: cell-based
[1] = test system: H1975; experiment: CCK-8 tumor cell proliferation, H1975; details: 72 hours
Protocol: (§1) Tumor cells (see Table 2 to Table 5) were inoculated in 96-well plates in complete culture medium (2000-3000 cells/well). After overnight incubation, the compounds with different concentrations (0.000508 μM-10 μM) were used to treat the cells separately for 72 hours. CCK-8 (Cell Counting Kit 8, Dojindo Laboratories, Kumamoto, Japan) experiment was used to evaluate cell proliferation. GraphPad Prism 5.0 software (La Jolla, CA) was used to calculate the half-maximal inhibitory concentration (IC50) values by fitting the concentration response curve. Each IC50 value was represented as an average value±SD.

[2] = test system: H1975OR; experiment: CCK-8 tumor cell proliferation, H1975OR; details: H1975OR cells (Osimertinib resistant), 72 hours
Protocol: (§2) Cell line: Non-small cell lung cancer H1975-OR cell line, which is an Osimertinib resistant H1975 cell line, and could be obtained through low dose gradual addition culture. Specific method: H1975 cells were spread in a 10 cm culture dish at a convergence rate of 60-70%, added 50 nM of Osimertinib to the culture medium. After the cell state stabilized, the concentration of Osimertinib was gradually double to 3 μM.
as §1

[3] = test system: PC-9; experiment: CCK-8 tumor cell proliferation, PC-9; details: Homo sapiens, PC-9 cells, 72 hours
Protocol: as §1

[4] = test system: A431; experiment: CCK-8 tumor cell proliferation, A431; details: Homo sapiens, A-431, A431 cells, 72 hours
Protocol: as §1

[5] = test system: HCC827; experiment: CCK-8 tumor cell proliferation, HCC827; details: Homo sapiens, HCC827 cells, 72 hours
Protocol: as §1

[6] = test system: H1299; experiment: CCK-8 tumor cell proliferation, H1299; details: Homo sapiens, NCI-H1299, H1299 cells, 72 hours
Protocol: as §1

[7] = biological target: T1, AKT1 (Homo sapiens, UniProt P31749); experiment: Western Blot, degradation of AKT1 protein in H1975-OR cells; details: 24 hours, maximum degradation rate; for Dmax at 1 µM: 1000 nM
T1 construct: AKT1, AKT2, and AKT3 proteins in H1975-OR cells; endogenous in cells; host or cells: H1975-OR (osimertinib-resistant H1975)
Protocol: as §2
(§3) Conventional Western Blot (immunoblotting) was used for detection, as follows: a certain number of H1975-OR cells were planted on a 96 well plate, adherent cultured in an incubator overnight, and added a certain concentration of compound to act for 24 hours. 1×SDS lysis buffer with protease and phosphatase inhibitors was used to lyse cells. Cell lysates were separated by SDS-PAGE and transferred to PVDF membrane. Then, at room temperature, the PCDF membrane was taken out and immersed in a sealing solution (5% BSA TBS solution containing 0.5% Tween-20) for sealing treatment for 1 hour, and then incubated with a specific primary antibody at 4° C. overnight. The imprints were washed with TBST and incubated with horseradish peroxidase (HRP) labeled secondary antibodies at room temperature for 2 hours. Finally, ECL plus fluorescence detection reagent (Thermo Scientific, Waltham, MA) was used for protein development, and the Amersham Imager 600 system (GE, America) was used for photography. The detection results were processed using ImageJ software to obtain the grayscale value G (Density).

[8] = biological target: T2, AKT2 (Homo sapiens, UniProt P31751); experiment: Western Blot, degradation of AKT2 protein in H1975-OR cells; details: 24 hours, maximum degradation rate; for Dmax at 1 µM: 1000 nM
T2 construct: AKT1, AKT2, and AKT3 proteins in H1975-OR cells; endogenous in cells; host or cells: H1975-OR (osimertinib-resistant H1975)
Protocol: as §2, §3

[9] = biological target: AKT3 (Homo sapiens, UniProt Q9Y243); experiment: Western Blot, degradation of AKT3 protein in H1975-OR cells; parameters: endogenous in cells; host or cells: H1975-OR (osimertinib-resistant H1975); details: 24 hours, maximum degradation rate; for Dmax at 1 µM: 1000 nM
Protocol: as §2, §3

[10] = Homo sapiens, NCI-H1975, H1975 cells

T2 sequence (P31751 whole entry): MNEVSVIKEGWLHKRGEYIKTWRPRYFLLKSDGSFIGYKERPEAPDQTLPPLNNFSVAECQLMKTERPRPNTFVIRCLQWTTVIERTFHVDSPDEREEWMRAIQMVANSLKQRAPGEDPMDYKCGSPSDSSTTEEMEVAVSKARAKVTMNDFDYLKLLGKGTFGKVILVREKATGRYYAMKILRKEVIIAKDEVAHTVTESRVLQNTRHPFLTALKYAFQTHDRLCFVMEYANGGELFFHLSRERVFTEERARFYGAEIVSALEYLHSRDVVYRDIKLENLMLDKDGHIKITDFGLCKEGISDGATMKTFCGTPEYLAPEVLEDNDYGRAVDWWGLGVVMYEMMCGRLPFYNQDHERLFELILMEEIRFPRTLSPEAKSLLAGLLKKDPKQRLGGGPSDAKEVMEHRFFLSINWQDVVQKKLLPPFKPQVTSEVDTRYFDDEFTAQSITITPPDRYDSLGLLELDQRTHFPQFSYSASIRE
Sequence of AKT3 (Q9Y243 whole entry): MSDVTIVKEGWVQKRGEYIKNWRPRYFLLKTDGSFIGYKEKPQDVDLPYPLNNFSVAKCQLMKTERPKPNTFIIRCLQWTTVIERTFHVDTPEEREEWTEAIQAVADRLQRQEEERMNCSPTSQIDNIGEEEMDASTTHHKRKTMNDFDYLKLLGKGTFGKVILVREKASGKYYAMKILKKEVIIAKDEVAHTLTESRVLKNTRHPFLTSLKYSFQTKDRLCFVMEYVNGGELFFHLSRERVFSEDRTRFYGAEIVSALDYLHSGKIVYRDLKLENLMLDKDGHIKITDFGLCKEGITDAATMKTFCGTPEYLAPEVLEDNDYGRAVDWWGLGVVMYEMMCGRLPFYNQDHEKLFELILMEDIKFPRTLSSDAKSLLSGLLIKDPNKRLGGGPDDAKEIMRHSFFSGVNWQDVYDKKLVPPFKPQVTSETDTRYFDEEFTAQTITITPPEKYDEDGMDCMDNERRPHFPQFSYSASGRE
T1 sequence (P31749 whole entry): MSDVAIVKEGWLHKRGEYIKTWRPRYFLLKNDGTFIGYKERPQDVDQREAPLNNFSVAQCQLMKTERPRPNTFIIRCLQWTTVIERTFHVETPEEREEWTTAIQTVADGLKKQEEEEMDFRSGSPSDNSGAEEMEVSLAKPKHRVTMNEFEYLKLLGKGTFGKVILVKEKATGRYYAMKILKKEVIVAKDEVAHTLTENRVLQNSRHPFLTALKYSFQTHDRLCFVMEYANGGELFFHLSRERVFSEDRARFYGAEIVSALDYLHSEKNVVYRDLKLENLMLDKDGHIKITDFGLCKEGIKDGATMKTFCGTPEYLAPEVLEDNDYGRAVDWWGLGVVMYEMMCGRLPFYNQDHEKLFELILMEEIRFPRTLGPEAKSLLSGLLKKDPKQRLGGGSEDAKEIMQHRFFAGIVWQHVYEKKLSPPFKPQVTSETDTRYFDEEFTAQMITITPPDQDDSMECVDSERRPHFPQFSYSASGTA

Row | IC50 [1, 10] [µM] | IC50 [2] [µM] | IC50 [3] [µM] | IC50 [4] [µM] | IC50 [5] [µM] | IC50 [6] [µM] | Dmax at 1 µM [7] [%] | Dmax at 1 µM [8] [%] | Dmax at 1 µM [9] [%] | Compound | Dmax (%) at 1000 nM AKT1 [7] [%] | Dmax (%) at 1000 nM AKT2 [8] [%] | IC50 ([1]; H1975 cells) [µM] | Dmax (%) at 1000 nM AKT3 [9] [%]
1 | 6.96 ± 6.04 | 0.216 ± 0.032 | > 10 | 2.29 ± 0.0474 | 10.7 ± 3.88 | > 10 | – | – | – | COc1cc(N2CCN(CCCCCCCCCCCCNC(=O)CC34CC5CC(CC(C5)C3)C4)CC2)ccc1Nc1ncc2c(C)cc(=O)n(-c3cccc(NC(=O)C4CCCCC4)c3)c2n1 [ZX-HYT-13, N-(3-(2-((4-(4-(12-(2-(((3R, 5R, 7R)-adamantan-1-yl)acetylamino)dodecyl)piperazin-1-yl)-2-methoxyphenyl)amino)-5-methyl-7-oxypyridino [2,3-d]pyrimidin-8 (7H)-yl)phenyl)cyclohexane formamide] | – | – | – | –
2 | 0.257 ± 0.0423 | 0.172 ± 0.0204 | – | – | – | – | 57.5 | 30.5 | 37.9 | COc1cc(N2CCN(CCCCCCCCCCCCNC(=O)CC34CC5CC(CC(C5)C3)C4)CC2)ccc1Nc1ncc2c(C)cc(=O)n(-c3cccc(N(C)C)c3)c2n1 [ZX-HYT-43, 2-((3R, 5R, 7R)-adamantan-1-yl)-N-(12-(4-(4-((8-(3-(dimethylamino)phenyl)-5-methyl-7-oxy-7,8-dihydropyridino [2,3-d]pyrimidin-2-yl)amino)-3-methoxyphenyl)piperazin-1-yl)dodecyl) acetamide] | – | – | – | –
3 | 5.39 ± 0.293 | 8.09 ± 0.432 | – | – | – | – | 22.4 | 23.6 | 40.1 | COc1cc(N2CCN(CCCCCCCCCCCCNC(=O)CC34CC5CC(CC(C5)C3)C4)CC2)ccc1Nc1ncc2c(C)cc(=O)n(-c3cccc(NCC4CNC4)c3)c2n1 [ZX-HYT-44, 2-((3R, 5R, 7R)-adamantan-1-yl)-N-(12-(4-(4-((8-(3-((azacyclobutane-3-ylmethyl)amino)phenyl)-5-methyl-7-oxy-7,8-dihydropyridino [2,3-d]pyrimidin-2-yl)amino)-3-methoxyphenyl)piperazin-1-yl)dodecanyl) acetamide] | – | – | – | –
4 | 2.4 ± 0.226 | 2.35 ± 0.11 | – | – | – | – | 32.8 | 17.6 | 29.1 | COc1cc(N2CCN(CCCCCCCCCCCCNC(=O)CC34CC5CC(CC(C5)C3)C4)CC2)ccc1Nc1ncc2c(C)cc(=O)n(-c3cccc(NC4CNC4)c3)c2n1 [ZX-HYT-45, 2-((3R, 5R, 7R)-adamantan-1-yl)-N-(12-(4-(4-((8-(3-(azacyclobutane-3-ylamino)phenyl)-5-methyl-7-oxy-7,8-dihydropyridino [2,3-d]pyrimidin-2-yl)amino)-3-methoxyphenyl)piperazin-1-yl)dodecyl) acetamide] | – | – | – | –
5 | 0.0365 ± 0.0012 | 0.0224 ± 0.0127 | – | – | – | – | 0 | 0 | 67.5 | COc1cc(N2CCN(CCCCCCCCNC(=O)CC34CC5CC(CC(C5)C3)C4)CC2)ccc1Nc1ncc2c(C)cc(=O)n(-c3cccc(NC(=O)C4CC4)c3)c2n1 [ZX-HYT-47, N-(3-(2-((4-(4-(8-(2-((3R, 5R, 7R)-adamantan-1-yl)acetylamino)octyl)piperazin-1-yl)-2-methoxyphenyl))amino)-5-methyl-7-oxypyridino [2,3-d]pyrimidin-8 (7H)-yl) phenyl) cyclopropane formamide] | – | – | – | –
6 | 0.187 ± 0.0357 | 0.105 ± 0.052 | – | – | – | – | 0 | 34.2 | 60.6 | COc1cc(N2CCN(CCCCCCCCNC(=O)CC34CC5CC(CC(C5)C3)C4)CC2)ccc1Nc1ncc2c(C)cc(=O)n(-c3cccc(NC(=O)C(C)(C)C)c3)c2n1 [ZX-HYT-48, N-(3-(2-((4-(4-(8-(2-((3R, 5R, 7R)-adamantan-1-yl)acetylamino)octyl)piperazin-1-yl)-2-methoxyphenyl))amino)-5-methyl-7-oxypyridino [2,3-d]pyrimidin-8 (7H)-yl) phenyl) neopentanamide] | – | – | – | –
7 | 0.121 ± 0.0449 | 0.0939 ± 0.004 | – | – | – | – | 30.3 | 24.7 | 38.9 | COc1cc(N2CCN(CCCCCCCCNC(=O)C[C@]34CC5C[C@@](C)(C[C@@](C)(C5)C3)C4)CC2)ccc1Nc1ncc2c(C)cc(=O)n(-c3cccc(NC(=O)C4CC4)c3)c2n1 [ZX-HYT-59, N-(3-(2-((4-(4-(8-(2-((1S, 3R, 5S, 7R)-3,5-dimethyladamantan-1-yl)acetamido)octyl)piperazin-1-yl)-2-methoxyphenyl)amino)-5-methyl-7-oxypyridino [2,3-d]pyrimidin-8 (7H)-yl)phenyl) cyclopropanilamide] | – | – | – | –
8 | 0.0551 ± 0.0232 | 0.0487 ± 0.004 | – | – | – | – | 28.4 | 15.1 | 18.8 | COc1cc(N2CCN(CCCCCCCCNC(=O)C3CC3)CC2)ccc1Nc1ncc2c(C)cc(=O)n(-c3cccc(NC(=O)C4CC4)c3)c2n1 [ZX-HYT-62] | – | – | – | –

Further lines, the compound ahead of its results:

Row | Compound | IC50 [1, 10] [µM] | IC50 [2] [µM] | IC50 [3] [µM] | IC50 [4] [µM] | IC50 [5] [µM] | IC50 [6] [µM] | Dmax at 1 µM [7] [%] | Dmax at 1 µM [8] [%] | Dmax at 1 µM [9] [%] | Dmax (%) at 1000 nM AKT1 [7] [%] | Dmax (%) at 1000 nM AKT2 [8] [%] | IC50 ([1]; H1975 cells) [µM] | Dmax (%) at 1000 nM AKT3 [9] [%]
9 | COc1cc(N2CCN(CCCCCCCCCCCCNC(=O)CC34CC5CC(CC(C5)C3)C4)CC2)ccc1Nc1ncc2c(C)cc(=O)n([C@H]3CC[C@@H](NC(=O)C4CC4)C3)c2n1 [ZX-HYT-20, N-((1R,3S)-3-(2-((4-(4-(12-(2-((3R, 5R, 7R)-adamantan-1-yl)acetylamino)dodecyl)piperazin-1-yl)-2-methoxyphenyl)amino)-5-methyl-7-oxypyridino [2,3-d]pyrimidin-8 (7H)-yl)cyclopentyl) cyclopropane formamide] | – | – | 0.295 | 0.106 | – | – | – | – | – | – | – | – | –
10 | COc1cc(N2CCN(CCCCCCCCCCCCNC(=O)CC34CC5CC(CC(C5)C3)C4)CC2)ccc1Nc1ncc2c(C)cc(=O)n(C3CCCC3)c2n1 [ZX-HYT-24, 2-(((3R, 5R, 7R)-adamantan-1-yl)-N-(12-(4-(4-(8-cyclopentyl-5-methyl-7-oxy-7,8-dihydropyridinyl [2,3-d]pyrimidin-2-yl)amino)-3-methoxyphenyl)piperazin-1-yl)dodecyl) acetamide] | 2.67 ± 0.471 | 0.734 ± 0.00594 | – | 0.212 ± 0.0653 | 1.4 ± 0.248 | – | 0 | 0 | 51.5 | – | – | – | –
11 | CCC(=O)Nc1cccc(-n2c(=O)cc(C)c3cnc(Nc4ccc(N5CCN(CCCCCCCCNC(=O)CC67CC8CC(CC(C8)C6)C7)CC5)cc4OC)nc32)c1 [ZX-HYT-49, N-(3-(2-((4-(4-(8-(2-((3R, 5R, 7R)-adamantan-1-yl)acetylamino)octyl)piperazin-1-yl)-2-methoxyphenyl))amino)-5-methyl-7-oxypyridino [2,3-d]pyrimidin-8 (7H)-yl) phenyl) propionamide] | 0.0958 ± 0.0126 | 0.0346 | – | – | – | – | 0 | 26.1 | 61.6 | – | – | – | –
12 | COc1cc(N2CCN(CCCCCCCCNC(=O)C3C[C@H]4C=C[C@@H]3C4)CC2)ccc1Nc1ncc2c(C)cc(=O)n(-c3cccc(NC(=O)C4CC4)c3)c2n1 (stereo partly shown) [ZX-HYT-60] | 0.135 ± 0.0948 | 0.107 ± 0.0194 | – | – | – | – | 13 | 0 | 18.9 | – | – | – | –
13 | COc1cc(N2CCN(CCCCCCCCNC(=O)C3C[C@H]4CC[C@@H]3C4)CC2)ccc1Nc1ncc2c(C)cc(=O)n(-c3cccc(NC(=O)C4CC4)c3)c2n1 (stereo partly shown) [ZX-HYT-61] | 0.0738 ± 0.0456 | 0.103 ± 0.0592 | – | – | – | – | 14.2 | 31.5 | 15.9 | – | – | – | –
14 | N-(3-(2-((4-(4-(12-((2-((3R, 5R, 7R)-adamantan-1-yl) ethyl) amino) dodecyl) piperazin-1-yl)-2-methoxyphenyl) amino)-5-methyl-7-oxypyrano [2,3-d] pyrimidin-8 (7H)-yl) phenyl) cyclopropane formamide [ZX-HYT-29] | – | 0.98 ± 0.25 | – | – | – | – | – | – | – | 57.51 | 36.43 | 0.98 ± 0.21 | 54.7
